Data from PubChem BioAssay (NCI).
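Dose response: 5 concentrations. Exposure: 48 h. Format: 96-well plates. Endpoint: linear interpolation; highest concentration if not reached. At the GI50, growth is halved. TGI: total growth inhibition.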

Legend:
Assay in all cases: growth of human tumour cells (NCI), 48 h
HS 578T breast = tested on: HS 578T breast
SK-MEL-5 melanoma = tested on: SK-MEL-5 melanoma
DU-145 prostate = tested on: DU-145 prostate
HCT-15 colon = tested on: HCT-15 colon
CAKI-1 renal = tested on: CAKI-1 renal
HCT-116 colon = tested on: HCT-116 colon
HL-60(TB) leukemia = tested on: HL-60(TB) leukemia
MDA-MB-435 = tested on: MDA-MB-435
EKVX NSCLC = tested on: EKVX NSCLC
SF-295 CNS = tested on: SF-295 CNS
MALME-3M melanoma = tested on: MALME-3M melanoma
SNB-19 CNS = tested on: SNB-19 CNS
OVCAR-5 ovarian = tested on: OVCAR-5 ovarian
CCRF-CEM leukemia = tested on: CCRF-CEM leukemia
A498 renal = tested on: A498 renal
UO-31 renal = tested on: UO-31 renal
SN12C renal = tested on: SN12C renal
RXF 393 renal = tested on: RXF 393 renal
SW-620 colon = tested on: SW-620 colon
NCI-H522 lung = tested on: NCI-H522 lung
KM12 colon = tested on: KM12 colon
SK-MEL-28 melanoma = tested on: SK-MEL-28 melanoma
OVCAR-4 ovarian = tested on: OVCAR-4 ovarian
NCI-H23 lung = tested on: NCI-H23 lung
SF-539 CNS = tested on: SF-539 CNS
SK-OV-3 ovarian = tested on: SK-OV-3 ovarian
NCI-H226 lung = tested on: NCI-H226 lung
MOLT-4 leukemia = tested on: MOLT-4 leukemia
U251 CNS = tested on: U251 CNS
M14 melanoma = tested on: M14 melanoma
HT29 colon = tested on: HT29 colon
HOP-92 NSCLC = tested on: HOP-92 NSCLC
RPMI-8226 leukemia = tested on: RPMI-8226 leukemia
HOP-62 NSCLC = tested on: HOP-62 NSCLC
MDA-MB-468 breast = tested on: MDA-MB-468 breast
ACHN renal = tested on: ACHN renal
UACC-257 melanoma = tested on: UACC-257 melanoma
SK-MEL-2 melanoma = tested on: SK-MEL-2 melanoma
NCI-H460 lung = tested on: NCI-H460 lung
PC-3 prostate = tested on: PC-3 prostate
BT-549 breast = tested on: BT-549 breast
A549 NSCLC = tested on: A549 NSCLC
786-0 renal = tested on: 786-0 renal
LOX IMVI melanoma = tested on: LOX IMVI melanoma
OVCAR-8 ovarian = tested on: OVCAR-8 ovarian
SF-268 CNS = tested on: SF-268 CNS
SR leukemia = tested on: SR leukemia
K-562 leukemia = tested on: K-562 leukemia
UACC-62 melanoma = tested on: UACC-62 melanoma
MCF7 breast = tested on: MCF7 breast
OVCAR-3 ovarian = tested on: OVCAR-3 ovarian
MDA-MB-231 breast = tested on: MDA-MB-231 breast
HCC-2998 colon = tested on: HCC-2998 colon
TK-10 renal = tested on: TK-10 renal
IGROV1 ovarian = tested on: IGROV1 ovarian
COLO 205 colon = tested on: COLO 205 colon

Compound `Cc1ccc2nc(COc3ccc(C(=O)NNC(=O)Nc4ccc(Cl)c(C(F)(F)F)c4)cc3)[nH]c2c1` has a GI50 (HS 578T breast) of 2.98 µM, a TGI (HS 578T breast) of 53.9 µM and a GI50 (SK-MEL-5 melanoma) of 11.8 µM. The TGI (SK-MEL-5 melanoma) was 28.4 µM, the GI50 (DU-145 prostate) was 30.4 µM and the TGI (DU-145 prostate) was over 100 µM. It also gave a GI50 (HCT-15 colon) of 49.1 µM, a TGI (HCT-15 colon) of over 100 µM and a GI50 (CAKI-1 renal) of 21 µM. It also gave a TGI (CAKI-1 renal) of 64.2 µM, a GI50 (HCT-116 colon) of 45.1 µM and a TGI (HCT-116 colon) of over 100 µM. For the same compound, the GI50 (HL-60(TB) leukemia) was over 100 µM, the TGI (HL-60(TB) leukemia) was over 100 µM and the GI50 (MDA-MB-435) was 5.08 µM. For the same compound, the TGI (MDA-MB-435) was 36.5 µM, the GI50 (EKVX NSCLC) was 41.8 µM and the TGI (EKVX NSCLC) was over 100 µM. For the same compound, the GI50 (SF-295 CNS) was 12.3 µM, the TGI (SF-295 CNS) was 25.9 µM and the GI50 (MALME-3M melanoma) was 2.06 µM. It also gave a TGI (MALME-3M melanoma) of 5.06 µM, a GI50 (SNB-19 CNS) of 5.59 µM and a TGI (SNB-19 CNS) of 19.9 µM. It also gave a GI50 (OVCAR-5 ovarian) of 26.6 µM, a TGI (OVCAR-5 ovarian) of over 100 µM and a GI50 (CCRF-CEM leukemia) of 51.2 µM. The TGI (CCRF-CEM leukemia) was over 100 µM, the GI50 (A498 renal) was 75.9 µM and the TGI (A498 renal) was over 100 µM. For the same compound, the GI50 (UO-31 renal) was over 100 µM, the TGI (UO-31 renal) was over 100 µM and the GI50 (SN12C renal) was 10.3 µM. The TGI (SN12C renal) was 50 µM, the GI50 (RXF 393 renal) was 6.32 µM and the TGI (RXF 393 renal) was 22 µM. The GI50 (SW-620 colon) was 10.7 µM, the TGI (SW-620 colon) was 36.9 µM and the GI50 (NCI-H522 lung) was 13.8 µM. It also gave a TGI (NCI-H522 lung) of 39.7 µM, a GI50 (KM12 colon) of 29.5 µM and a TGI (KM12 colon) of over 100 µM. For the same compound, the GI50 (SK-MEL-28 melanoma) was 2.94 µM, the TGI (SK-MEL-28 melanoma) was 9.25 µM and the GI50 (OVCAR-4 ovarian) was 18 µM. The TGI (OVCAR-4 ovarian) was 66.8 µM, the GI50 (NCI-H23 lung) was 10.8 µM and the TGI (NCI-H23 lung) was 29.7 µM. For the same compound, the GI50 (SF-539 CNS) was 4 µM, the TGI (SF-539 CNS) was 20.1 µM and the GI50 (SK-OV-3 ovarian) was 21.2 µM. For the same compound, the TGI (SK-OV-3 ovarian) was 54.1 µM, the GI50 (NCI-H226 lung) was 12.2 µM and the TGI (NCI-H226 lung) was 39.7 µM. For the same compound, the GI50 (MOLT-4 leukemia) was 21.6 µM, the TGI (MOLT-4 leukemia) was over 100 µM and the GI50 (U251 CNS) was 4.13 µM. It also gave a TGI (U251 CNS) of 17.9 µM, a GI50 (M14 melanoma) of 8.45 µM and a TGI (M14 melanoma) of over 100 µM. For the same compound, the GI50 (HT29 colon) was 19.5 µM, the TGI (HT29 colon) was 84.9 µM and the GI50 (HOP-92 NSCLC) was 5.38 µM. The TGI (HOP-92 NSCLC) was 24 µM, the GI50 (RPMI-8226 leukemia) was 49.8 µM and the TGI (RPMI-8226 leukemia) was over 100 µM. For the same compound, the GI50 (HOP-62 NSCLC) was 5.68 µM, the TGI (HOP-62 NSCLC) was 21.6 µM and the GI50 (MDA-MB-468 breast) was 2.77 µM. It also gave a TGI (MDA-MB-468 breast) of 7.77 µM, a GI50 (ACHN renal) of 27.4 µM and a TGI (ACHN renal) of over 100 µM. The GI50 (UACC-257 melanoma) was 5.11 µM, the TGI (UACC-257 melanoma) was 58 µM and the GI50 (SK-MEL-2 melanoma) was 15.9 µM. For the same compound, the TGI (SK-MEL-2 melanoma) was 44.7 µM, the GI50 (NCI-H460 lung) was 7.24 µM and the TGI (NCI-H460 lung) was 23.4 µM. The GI50 (PC-3 prostate) was 6.71 µM, the TGI (PC-3 prostate) was 36.2 µM and the GI50 (BT-549 breast) was 13 µM. For the same compound, the TGI (BT-549 breast) was 88.1 µM, the GI50 (A549 NSCLC) was 7.96 µM and the TGI (A549 NSCLC) was 71.1 µM. The GI50 (786-0 renal) was 14.6 µM, the TGI (786-0 renal) was 41.6 µM and the GI50 (LOX IMVI melanoma) was 4.04 µM. For the same compound, the TGI (LOX IMVI melanoma) was 18.7 µM, the GI50 (OVCAR-8 ovarian) was 5.54 µM and the TGI (OVCAR-8 ovarian) was 47.9 µM. The GI50 (SF-268 CNS) was 6.57 µM, the TGI (SF-268 CNS) was over 100 µM and the GI50 (SR leukemia) was 8.46 µM. The TGI (SR leukemia) was over 100 µM, the GI50 (K-562 leukemia) was 6.1 µM and the TGI (K-562 leukemia) was over 100 µM. The GI50 (UACC-62 melanoma) was 5.31 µM, the TGI (UACC-62 melanoma) was 19.8 µM and the GI50 (MCF7 breast) was 3.61 µM. The TGI (MCF7 breast) was 17.2 µM, the GI50 (OVCAR-3 ovarian) was 24.2 µM and the TGI (OVCAR-3 ovarian) was over 100 µM. It also gave a GI50 (MDA-MB-231 breast) of 6.31 µM, a TGI (MDA-MB-231 breast) of 26 µM and a GI50 (HCC-2998 colon) of 28.8 µM. It also gave a TGI (HCC-2998 colon) of over 100 µM, a GI50 (TK-10 renal) of 49.4 µM and a TGI (TK-10 renal) of over 100 µM. It also gave a GI50 (IGROV1 ovarian) of 9.96 µM, a TGI (IGROV1 ovarian) of 27.2 µM and a GI50 (COLO 205 colon) of 21.7 µM. The TGI (COLO 205 colon) was 71.8 µM.
